We go through two compounds from US11753407B2, “Compounds for treating spinal muscular atrophy” (PTC Therapeutics, Inc., priority 2012, dated 2023).

The test system of assay [1] is SMN2 mRNA in GM03813 SMA patient cells. Put plainly: Endogenous SMN2 mRNA RT-qPCR splicing assay in cultured cells. The assay is classed as cell-based, human. The settings on record: Type 1 SMA patient fibroblasts, increasing concentrations, 24 hr, versus vehicle (FIG. 4). How it is done: The reverse transcription-quantitative PCR-based (RT-qPCR) assay is used to quantify the levels of the full length and Δ7 SMN2 mRNA in primary cells and cell lines containing the SMN2 gene treated with a test compound.
Protocol. GM03813 SMA patient cells (5,000 cells/well) are seeded in 200 μL of cell culture medium (DMEM plus 10% FBS) in 96-well flat-bottom plates and the plate is immediately swirled to ensure proper dispersal of cells, forming an even monolayer of cells. Cells are allowed to attach for at least 4-6 hrs. Test compounds are serially diluted 3.16-fold in 100% DMSO to generate a 7-point concentration curve. A solution of test compound (1 μL, 200× in DMSO) is added to each test well and 1 μL DMSO is added to each control well. The plate is incubated for 24 hrs in a cell culture incubator (37° C., 5% CO2, 100% relative humidity). The cells are then lysed in Cells-To-Ct lysis buffer and the lysate is stored at −80° C.
SMN2-specific spliced products and GAPDH mRNA are identified using the following primers and probes in Table 5. Primer SMN FL Forward B (SEQ ID NO. 7) hybridizes to a nucleotide sequence in exon 7 (nucleotide 32 to nucleotide 54) and exon 8 (nucleotide 1 to nucleotide 4), primer SMN Δ7 Forward B (SEQ ID NO. 8) hybridizes to a nucleotide sequence in exon 6 (nucleotide 87 to nucleotide 111) and exon 8 (nucleotide 1 to nucleotide 3), primer SMN Reverse B (SEQ ID NO. 9) hybridizes to a nucleotide sequence in exon 8 (nucleotide 39 to nucleotide 62), probe SMN Probe B (SEQ ID NO. 10) hybridizes to a nucleotide sequence in exon 8 (nucleotide 7 to nucleotide 36). These primers and probes hybridize to nucleotide sequences common to human SMN1 and SMN2 mRNA. Since the SMA patient cells used in Example 3 contain only the SMN2 gene, RT-qPCR can quantify only SMN2 full-length and Δ7 mRNA.
The SMN forward and reverse primers are used at final concentrations of 0.4 μM. The SMN probe is used at a final concentration of 0.15 μM. GAPDH primers are used at final concentrations of 0.1 μM and the probe at 0.075 μM. […]
The increase of SMN2 FL and decrease in SMN2 Δ7 mRNA relative to those in cells treated with vehicle control are determined from real-time PCR data using a modified ΔΔCt method (as described in Livak and Schmittgen, Methods, 2001, 25:402-8). The amplification efficiency (E) is calculated from the slope of the amplification curve for SMN2 FL, SMN2 Δ7, and GAPDH individually. The abundances of SMN2 FL, SMN2 Δ7, and GAPDH are then calculated as (1+E)^−Ct, where Ct is the threshold value for each amplicon. […]
Background: Real-time PCR tracks product formation cycle by cycle.

Assay [2] concerns Smn protein in human motor neurons derived from SMA iPS cells. Put plainly: Smn protein assay in human motor neurons. The assay is classed as cell-based. The following applies: 72 hours, increasing concentrations (FIG. 10). As for the experimental part: Smn immunofluorescent confocal microscopy is used to quantify the level of Smn protein in human motor neurons treated with test compounds.
Protocol. Human motor neurons derived from SMA iPS cells (Ebert et al., Nature, 2009, […]; and, Rubin et al., BMC Biology, 2011, 9:42) are treated with test compound at various concentrations for 72 hours. The level of Smn protein in the cell nucleus is quantified using Smn immunostaining and confocal fluorescence microscopy essentially as described in Makhortova et al., Nature Chemical Biology, 2011, 7:544. The level of Smn protein in compound-treated samples is normalized to that in vehicle-treated samples and plotted as a function of the compound concentration.

With `COc1ccc(-c2cc(=O)n3cc(N4CCNCC4)ccc3n2)cc1OC` [Cpd 6, 2-(3,4-dimethoxyphenyl)-7-(piperazin-1-yl)-4H-pyrido[1,2-a]pyrimidin-4-one], in assay [1], the “SMN2 FL mRNA” value is listed as “progressively more SMN2 FL mRNA” and the “SMN2 Δ7 mRNA” value is “less SMN2 Δ7 mRNA”. For the same compound, the “Smn protein in the nucleus” value in assay [2] is “progressively more Smn protein in the nucleus”.
In the case of `Cc1cn2nc(-c3cc(=O)n4cc(N5CCN(C)CC5)ccc4n3)cc2c(C)n1` [Cpd 170, 2-(4,6-dimethylpyrazolo[1,5-a]pyrazin-2-yl)-7-(4-methylpiperazin-1-yl)-4H-pyrido[1,2-a]pyrimidin-4-one], in assay [1], the “SMN2 FL mRNA” value was “progressively more SMN2 FL mRNA” and the “SMN2 Δ7 mRNA” value was “less SMN2 Δ7 mRNA”.
